Measurements: US11566007B2, “Ras inhibitors” (Revolution Medicines, Inc., priority 2019, dated 2023)

What was measured:
K-Ras G12C = K-Ras G12C (Homo sapiens (Human), UniProt P01116+P62937, G12C); assay: Ras-Raf (BRAF RBD) disruption / FRET / MOA assay, KRAS G12C; assay type: biochemical; conditions: KRAS G12C; Ras-Raf disruption/FRET/MOA assay; read-out: IC50* KRAS G12C FRET data
In short: (§1)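 TR-FRET read-out: a drop in ratio relative to DMSO wells marks disruption of the Ras:RAF complex, reported as IC50. Compounds (3-fold series, 10 points, top 30 μM final) incubated 3 h at 25° C before Eu-anti-His 10 nM and APC-anti-GST 50 nM, 1.5 h more.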

[1] = system: NCI-H358 cells (K-Ras G12C); assay: Potency assay: pERK in NCI-H358 cells; assay type: cell-based, human; conditions: Homo sapiens, NCI-H358; H358 KRAS G12C; read-out: pERK EC50
In short: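 pERK decrease read by AlphaLISA SureFire p-ERK1/2 or In-Cell Western after 4 h compound exposure at 37 °C, 5% CO2.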

KRAS G12V = KRAS G12V (Homo sapiens (Human), UniProt P01116+P62937, G12V); assay: Ras-Raf (BRAF RBD) disruption / FRET / MOA assay, KRAS G12V; assay type: biochemical; conditions: read-out: IC50* KRAS G12V FRET data
In short: as §1

NCI-H358 (K-Ras G12C) = assay: CellTiter-Glo cell viability assay, NCI-H358; assay type: cell-based, human; conditions: Homo sapiens, NCI-H358, 120 h, NCI-H358, 5-day treatment; class symbols; read-out: Additional H358 Cell Viability assay data (K-Ras G12C, IC50)
In short: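 Cells seeded, compound added directly, 5-day exposure. Plates to RT ~30 min, CellTiter-Glo luminescence read. Normalized to DMSO avg (x100); 4-parameter logistic fit.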

KRAS G13D = KRAS G13D (Homo sapiens (Human), UniProt P01116+P62937, G13D); assay: Ras-Raf (BRAF RBD) disruption / FRET / MOA assay, KRAS G13D; assay type: biochemical; conditions: read-out: IC50* KRAS G13D FRET data
In short: as §1

Chain of KRAS G13D (P01116-2 other isoform, or with tags, fused parts or gaps G13D): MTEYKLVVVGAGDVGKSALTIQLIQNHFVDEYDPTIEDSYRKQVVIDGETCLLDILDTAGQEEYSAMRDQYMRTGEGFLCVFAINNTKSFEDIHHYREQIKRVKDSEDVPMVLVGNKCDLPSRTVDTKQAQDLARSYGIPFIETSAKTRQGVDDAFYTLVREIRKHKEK
Chain of KRAS G13D (P62937 whole entry): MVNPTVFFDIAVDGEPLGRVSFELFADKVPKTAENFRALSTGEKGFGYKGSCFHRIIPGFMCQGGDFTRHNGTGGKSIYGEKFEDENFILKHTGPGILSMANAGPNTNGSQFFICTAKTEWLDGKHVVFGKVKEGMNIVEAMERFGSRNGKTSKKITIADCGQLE
Chain of K-Ras G12C (P01116-2 other isoform, or with tags, fused parts or gaps G12C): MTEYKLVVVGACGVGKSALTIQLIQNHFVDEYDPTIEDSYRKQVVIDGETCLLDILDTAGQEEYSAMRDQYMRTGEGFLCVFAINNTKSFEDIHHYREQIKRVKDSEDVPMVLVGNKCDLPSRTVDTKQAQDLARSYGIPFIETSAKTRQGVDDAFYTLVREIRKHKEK
Chain of K-Ras G12C (P62937 whole entry): as the sequence (P62937 whole entry) above
Chain of KRAS G12V (P01116-2 other isoform, or with tags, fused parts or gaps G12V): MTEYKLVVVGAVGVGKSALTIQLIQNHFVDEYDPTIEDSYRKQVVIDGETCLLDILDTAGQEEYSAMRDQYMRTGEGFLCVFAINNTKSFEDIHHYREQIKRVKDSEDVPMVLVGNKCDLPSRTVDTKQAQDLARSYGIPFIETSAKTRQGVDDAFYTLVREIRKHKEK
Chain of KRAS G12V (P62937 whole entry): as the sequence (P62937 whole entry) above

Row | IC50 (K-Ras G12C) [nM] | EC50 [1] [nM] | IC50 (KRAS G12V) [nM] | IC50 (NCI-H358 (K-Ras G12C)) [nM] | IC50 (KRAS G13D) [nM] | SMILES
1 | 1000 to 10000 | < 5000 | > 10000 | > 1000 | > 10000 | C=CC(=O)N1CC[C@H](C(=O)N(C)[C@H](C(=O)N[C@H]2C[C@H]3CN(CCO3)c3ccc4c(c3)c(c(-c3cccnc3COC)n4CC)CC(C)(C)COC(=O)[C@@H]3CCCN(N3)C2=O)C(C)C)C1 [Example A240]
2 | < 10 | < 5000 | 100 to 1000 | < 10 | 1000 to 10000 | CCn1c(-c2cccnc2[C@H](C)OC)c2c3cc(ccc31)N1CCO[C@@](C)(C[C@H](NC(=O)[C@H](C(C)C)N(C)C(=O)C3(F)CCN(C(=O)C#CC(C)(C)N(C)C)CC3)C(=O)N3CCC[C@H](N3)C(=O)OCC(C)(C)C2)C1 [Example A550]
3 | 100 to 1000 | < 5000 | 1000 to 10000 | 100 to 1000 | 1000 to 10000 | C=CC(=O)N1CCO[C@H]2CN(C(=O)N(C)[C@H](C(=O)N[C@H]3C[C@H]4CN(CCO4)c4ccc5c(c4)c(c(-c4cccnc4[C@H](C)OC)n5CC)CC(C)(C)COC(=O)[C@@H]4CCCN(N4)C3=O)C(C)C)C[C@H]21 [Example A562]

Second part, the compound before the results:

Row | SMILES | IC50 (K-Ras G12C) [nM] | EC50 [1] [nM] | IC50 (KRAS G12V) [nM] | IC50 (NCI-H358 (K-Ras G12C)) [nM] | IC50 (KRAS G13D) [nM]
4 | C=CC(=O)N1CC(N(C)C(=O)N(C)[C@H](C(=O)N[C@H]2Cc3nc(cs3)-c3ccc4c(c3)c(c(-c3cccnc3[C@H](C)OC)n4CC(F)(F)F)CC(C)(C)COC(=O)[C@@H]3CCCN(N3)C2=O)C(C)C)C1 (atropisomer, axis not shown) [Example A711] | < 10 | < 5000 | 100 to 1000 | < 10 | 100 to 1000
5 | CCn1c(-c2cccnc2[C@H](C)OC)c2c3cc(ccc31)-c1csc(n1)C[C@H](NC(=O)[C@@H](COC1CN(C(=O)C#CC(C)(C)N(C)C)C1)C(C)C)C(=O)N1CCC[C@H](N1)C(=O)OCC(C)(C)C2 (atropisomer, axis not shown) [Example A721] | < 10 | < 5000 | 1000 to 10000 | < 10 | > 10000
6 | CO[C@@H](C)c1ncccc1-c1c2c3cc(ccc3n1CC(F)(F)F)-c1cccc(c1)C[C@H](NC(=O)[C@H](C(C)C)N(C)C(=O)[C@H]1CCN(C(=O)C#CC(C)(C)N(C)C)C1)C(=O)N1CCC[C@H](N1)C(=O)OCC(C)(C)C2 (atropisomer, axis not shown) [Example A727] | < 10 | < 5000 | 1000 to 10000 | < 10 | 1000 to 10000
7 | CCn1c(-c2cccnc2)c2c3cc(ccc31)-c1csc(c1)C[C@H](NC(=O)[C@H](C(C)C)N(C)C(=O)[C@H]1CCN(C(=O)C#CCN3CCOCC3)C1)C(=O)N1CCC[C@H](N1)C(=O)OCC(C)(C)C2 [Example A205] | 100 to 1000 | < 5000 | > 10000 | 100 to 1000 | > 10000
